Consider two substances from patent US20210087565A1, “ANTISENSE ANTIBIOTICS AND BACTERIAL SECRETION BASED DELIVERY SYSTEM TO ELIMINATE DRUG-RESISTANT BACTERIA” (priority 2018, published 2021).

The subject of one series is CRE E. coli. Kind of series: PNA growth assay (optical density) on clinical isolate. The class given is cell-based, Escherichia coli. To be noted: for growth inhibition: 10 μM PNA, optical density vs no treatment at 16 hours. The method, then: (§1) Bacterial Cell culture: The clinical isolates were obtained from the lab of Nancy Madinger at the University of Colorado Anschutz campus. Clinical isolates were grown in Cation Adjusted Mueller Hinton broth (CAMHB) (Becton, Dickinson and Company 212322) at 37° C. with 225 rpm shaking or on solid CAMHB with 1.5% agar at 37° C. Clinical isolates were maintained as freezer stocks in 90% CAMHB, 10% glycerol at −80° C. Freezer stocks were streaked out onto solid CAMHB and incubated for 16 h to produce single colonies prior to experiments. For each biological replicate, a single colony was picked from solid media and grown for 16 h in liquid CAMHB prior to experiments. Non-clinical isolates, such as E. coli MG1655 (ATCC700926) and Salmonella entorica serovar typhimurium SL1344, were cultured in liquid 2% lysogeny broth (LB) or on 2% LB with 1.5% agar for solid plates. S. typhimurium cultures were supplemented with 30 μg/mL streptomycin and SL1344 strains containing plasmids pFPV (SL1344-mCherry) or pRG1 modified with a lacIq promoter (SL1344-Holin) were supplemented with 100 μg/mL ampicillin. Freezer stocks were stored in 60% LB broth, 40% glycerol at −80° C. Freezer stocks were streaked out onto solid LB and incubated for 16 h to produce single colonies before experiments. For biological replicates, single colonies were started in liquid LB and grown for 16 hours prior to experiments. E. coli MG1655 PNA growth experiments were carried out in M9 media (1×M9 minimal media salts solution (MP Biomedicals), 2.0 mM MgSO4, and 0.1 mM CaCl2 in sterile water) with 0.4% glucose.
(§2) PNA growth assay: Biological replicates were diluted 1:10,000 into treatment condition in 384-well plates and measured for 24 h in a Tecan GENios at 562 nm with a bandwidth of 35 nm. Media absorbance blanks were subtracted from data prior to analysis. Normalized optical density (OD) data is shown normalized to the time point where the “no treatment” growth curves reached saturation phase which varied across biological replicates.

Series [1] concerns intracellular SL1344 S. typhimurium in HeLa cells. In words: Salmonella infection of HeLa cells and PNA treatment (T3SS-PNA or naked PNA). The class given is cell-based, Salmonella enterica serovar typhimurium. Particulars: for reduction of intra-epithelial Salmonella CFU: PNA delivered via the T3SS, vs no treatment, p<0.05; for reduction of intra-epithelial Salmonella CFU / clearing of infection (in words): 10 μM, 18 hours; for GFP expressing Salmonella in images (in words): T3SS-PNA treatment, compared to no treatment or Naked-PNA treatment; for clearing of infection (in words): naked PNA added exogenously after infection, compared to no treatment. On the procedure:
FIG. 4. Establishing the bacterial Type III secretion system (T3SS) for PNA transport. (A) Schematic showing enhancement of PNA delivery into HeLa cells using the bacterial T3SS of Salmonella enterica serovar typhimurium (STm) for treatment of an intracellular infection of STm. HeLa cells were seeded and allowed to grow for 24 h. SL1344 GFP STm was added at a MOI of 10:1 and allowed to infect HeLa cells for 45 min following two separate conditions: (Top) No PNA is added during this time, termed here as Naked PNA treatment, (Bottom) PNA is added at the time of infection at t=0 to utilize the T3SS, termed here as T3SS-PNA treatment. The T3SS-PNAs enter Salmonella during 45 minutes of incubation due to transport enhanced by the cell penetrating peptides, followed by entry into host cells via T3SS encoding and PNA carrying STm. (Top and Bottom). After 45 minutes infected HeLa cells are washed and treated with media containing gentamicin for 75 minutes to kill extracellular bacteria. The cells are then incubated for 18 h with media containing gentamicin following the two separate conditions: (Top) PNA supplied after infection for Naked PNA treatment. (Bottom) No PNA is added after infection. Post 18 hours of treatment HeLa cells are fixed for imaging or lysed for Colony forming Unit (CFU) analysis. (B) Representative images of uninfected (Top left), and infected HeLa cells without treatment (Bottom left). Top (right) panels show representative images of infected HeLa cells following Naked-PNA treatment. Bottom (right) panels show representative images of infected HeLa cells following T3SS-PNA treatment. HeLa cells are stained with nucleic stain DAPI (blue), and membrane stain Phalloidin (pink), and green pixels represent intracellular SL1344 S. typhimurium fluorescing GFP (green). […] (C) Intracellular S. typhimurium load (CFU/mL) in presence or absence of treatment. Significant reduction in STm CFU in HeLa cells when PNA is delivered using T3SS.
For all cases, HeLa cells were infected at time t=0 with SL1344 for 45 minutes with a multiplicity of infection (MOI) of bacteria to HeLa cells of approximately 10:1. For the T3SS-PNA treatment method HeLa cells were co-incubated with SL1344 and either α-rpsD or α-lexA for 45 minutes, allowing the PNA to enter the Salmonella while simultaneously transporting the PNA-carrying Salmonella into the HeLa cells using the T3SS. […] Post-infection, the cells were washed and incubated with media containing gentamicin for a period of 75 minutes to remove any extracellular bacteria and/or PNA. For all treatments the media was then replaced with fresh gentamicin containing growth medium, with the naked PNA treatment condition also containing 10 μM PNA, and incubated an additional 18 (FIG. 4A). At the end of 18 hours, cultures were analyzed via imaging or measured by intra-epithelial colony forming units (CFU). […] The present inventors obtained similar results in an infection of mouse osteoblast cells (FIG. 11B).
Salmonella infection of HeLa cells and PNA treatment: For a single infection (FIG. 4), SL1344 cultures were inoculated from a single colony on solid media in to 1 mL of LB media and grown for 16 hours at 37° C. with shaking. Cultures were diluted 1:10 and regrown in LB prior to infection. Bacteria were washed thrice with PBS, optical density at 600 nm measured, and diluted to a multiplicity of infection (MOI) of 10 in Dulbecco PBS (DPBS). MOI is calculated based on an established optical density and colony forming unit (CFU) calibration, and the number of mammalian cells per well at the time of infection approximated based on their doubling time. Mammalian cells were washed thrice with Dulbecco's Phosphate-Buffered Saline (DPBS, Fisher Scientific) prior to infection for 45 minutes 37° C. with controlled humidity. […]

The test system of the next series is MDR STm. Kind of series: PNA growth assay (optical density) on clinical isolate. The class given is cell-based, Salmonella enterica serovar typhimurium. Particulars: for growth inhibition: MDR STm, 10 μM PNA, optical density vs no treatment at 16 hours; for monotherapy effect (in words): clinical isolate of Salmonella. On the procedure: as §1, §2
The test system of the next series is HeLa cells. Kind of series: Cytotoxicity in HeLa cells (lactate dehydrogenase assay). The series is classed as cell-based, human. To be noted: for lethality to human epithelial cells (in words): HeLa, range of concentrations. On the procedure:
FIG. 12. Cytotoxicity measurement of varying concentration of PNA in HeLa cells. HeLa cells were plated on tissue culture treated 96-well plates at 4,500 cells per well. Varying concentrations of α-lexA and α-nonsense were added exogenously after 24 hours of growth and incubated in growth conditions for 18 hours. Cytotoxicity was measured using a lactate dehydrogenase assay and absorbance read at 450 nm with a blank (growth media with lactate dehydrogenase assay) subtracted. […] Error bars are standard deviation.

The subject of a further series is NDM-1 KPN. Kind of series: PNA growth assay (optical density) on clinical isolate. The series is classed as cell-based, Klebsiella pneumoniae. The method, then:
as §1, §2

Values joined by “and” are separate entries in the source; they are usually repeats but may differ in a detail not shown here. Equal entries are not always repeated.

The substance “α-lexA: 12-mer antisense PNA cGGAATGAAAGC (SEQ ID NO. 17) targeting lexA, conjugated to (KFF)3K cell penetrating peptide via AEEA-linker (antisense CGGAATGAAAGC; all peptide nucleic acid (PNA); (KFF)3K cell-penetrating peptide attached via AEEA linker)” registered a growth inhibition in the series on CRE E. coli of 51±8.1%. Besides, in series [1], the “reduction of intra-epithelial Salmonella CFU” value is around 69±8%, the “GFP expressing Salmonella in images (in words)” value is on record as “evident decrease in GFP expressing Salmonella” and the “clearing of infection (in words)” value is recorded as “not effective in clearing an infection”. In the series with MDR STm, the growth inhibition is 62±5.4% and the “monotherapy effect (in words)” value was “effective against the clinical isolate of Salmonella”. Moreover, the “concentration up to which no significant difference in cytotoxicity to negative control was seen” value in the series with HeLa cells (HeLa cells, 18 hours, lactate dehydrogenase assay, p>0.05) is reported as “up to 40 μM”. In addition, in the series with HeLa cells, the “lethality to human epithelial cells (in words)” value was “not found to be lethal”.
On to “α-rpsD: 12-mer antisense PNA AGAAAATGGCAA (SEQ ID NO. 19) targeting rpsD, conjugated to (KFF)3K cell penetrating peptide via AEEA-linker (all peptide nucleic acid (PNA); (KFF)3K cell-penetrating peptide attached via AEEA linker)”, for which the “monotherapy effect (in words)” value in the series with CRE E. coli (10 μM) is “effective in killing”; in the series on MDR STm it was “effective against the clinical isolate of Salmonella”; in the series on NDM-1 KPN (10 μM) it was “partial monotherapy effect”. Moreover, the growth inhibition is 99±0.4% and 99% with CRE E. coli; 99±0.1% and 99% in the series on MDR STm; 65±7.1% in the series with NDM-1 KPN (10 μM PNA, optical density vs no treatment at 16 hours). Also, the “reduction of intra-epithelial Salmonella CFU” value in series [1] is around 82±13%. For the same substance, the “GFP expressing Salmonella in images (in words)” value in series [1] is recorded as “evident decrease in GFP expressing Salmonella”. In addition, the “clearing of infection (in words)” value in series [1] was “not effective in clearing an infection”. Further, the “lethality to human epithelial cells (in words)” value in the series with HeLa cells is “not found to be lethal”.
